# Reference: patent publication US6479046B2, “Attractants and repellants for colorado potato beetle” (priority 2000, dated 2002)
# Experiments:
# CPB = settings: Schütz et al. (1997); cited from earlier work
# [1] = test system: Colorado potato beetle (CPB) adults; assay: open Y-track olfactometer dual choice bioassay, adult beetles; format: in vivo, Leptinotarsa decemlineata
# From the text: Insects: Adult Colorado potato beetles (CPB) were obtained from a laboratory colony which was annually infused with feral insects. CPB were maintained on potato, S. tuberosum cultivar Kennebeck, for both larval and adult stages. Upon emergence, adults were sexed; individual insects were kept in plastic containers with fresh potato foliage and water until use six to 12 days post emergence. Prior to testing, CPB were starved for two to three hours. Experimental insects were used only once.
# Odorous blends tested are described in Table 3.
# Plant stimuli consisted of 4.8 g of leaves from mature plants that were mechanically-damaged using scissors to make incisions ca. 1 cm in length at ca. 1 cm intervals around the circumference of leaves. Foliage used in the study were, potato, S. tuberosum cultivar Kennebeck (Solanaceae); tomato, Lycopersicon esculentum Mill cultivar Pik Red (Solanaceae); and soybean, Glycines maxcultivar Williams (Leguminaceae).
# Experimental protocol: Chemical blends and plant foliage were tested for behavioral activity in an open Y-track olfactometer modified after Visser et al. (Visser, J. H., et al., Proceedings of the Section Experimental and Applied Entomology of the Netherlands Entomological Society Amsterdam, 9: 41-46 (1998); and described in detail by Dickens (Dickens, J. C., Agricultural and Forest Entomology, 1: 47-54 (1999)). In brief, odorous stimuli emanating from synthetic blends on filter paper discs (2.5 cm dia., Whatman™ #1 filter paper) or mechanically-damaged plant foliage in Ehrlenmeyer flasks were delivered to either side of the device. For each blend, a total amount of 25 μl of neat chemicals were diluted in 1 ml of mineral oil (25 μg total chemicals/μl mineral oil). […]
# Statistical analysesLaboratory bioassays were assessed for significant differences by the hypothesis on binomial proportions based on the standard normal approximation (Brase, C. H., et al., Understanding Statistics, D. C. Heath and Co., Lexington, Mass., XIV +489 pp. (1983)).
Molecule,attraction of CPB to leaves sprayed with paraffin solutions (in words) (CPB),behavioral response of CPB to treatment versus control (in words) [1]
C=CC(C)(O)CCC=C(C)C (stereo not shown) [linalool],attractive,–
CCCCC/C=C\CCO [(Z)-3-nonen-1-ol],reduced attraction,–
"CC/C=C\CCOC(C)=O [XIV, (Z)-3-hexenyl acetate]",–,unattractive
CCCCCCCCC=O [nonanal],reduced attraction,–
C=C1CC/C=C(\C)CC[C@@H]2[C@@H]1CC2(C)C [β-caryophyllene],attractive,–
OCCc1ccccc1 [2-benzene-ethanol],attractive,–
benzene methanol,attractive,–
"C=CC(C)(O)CCC=C(C)C (single isomer, unassigned; (+)) [XV, (+)-linalool]",–,unattractive
"COC(=O)c1ccccc1O [XVI, methyl salicylate]",–,unattractive
C=CC(=C)CCC=C(C)C [β-myrcene],reduced attraction,–
